Measured values as given in ChEMBL document CHEMBL1126211, “Arylamides of hydroxylated isoquinolines as protein-tyrosine kinase inhibitors” (Bioorg Med Chem Lett, 1992).

What was measured:
[1] = target: Tyrosine-protein kinase Lck (Homo sapiens, UniProt P06239); test: Inhibition of p56 lck tyrosine kinase
[2] = target: Epidermal growth factor receptor (Homo sapiens, UniProt P00533); test: Inhibition of epidermal growth factor receptor (EGFR)
Epidermal growth factor receptor, sequence (P00533 whole entry): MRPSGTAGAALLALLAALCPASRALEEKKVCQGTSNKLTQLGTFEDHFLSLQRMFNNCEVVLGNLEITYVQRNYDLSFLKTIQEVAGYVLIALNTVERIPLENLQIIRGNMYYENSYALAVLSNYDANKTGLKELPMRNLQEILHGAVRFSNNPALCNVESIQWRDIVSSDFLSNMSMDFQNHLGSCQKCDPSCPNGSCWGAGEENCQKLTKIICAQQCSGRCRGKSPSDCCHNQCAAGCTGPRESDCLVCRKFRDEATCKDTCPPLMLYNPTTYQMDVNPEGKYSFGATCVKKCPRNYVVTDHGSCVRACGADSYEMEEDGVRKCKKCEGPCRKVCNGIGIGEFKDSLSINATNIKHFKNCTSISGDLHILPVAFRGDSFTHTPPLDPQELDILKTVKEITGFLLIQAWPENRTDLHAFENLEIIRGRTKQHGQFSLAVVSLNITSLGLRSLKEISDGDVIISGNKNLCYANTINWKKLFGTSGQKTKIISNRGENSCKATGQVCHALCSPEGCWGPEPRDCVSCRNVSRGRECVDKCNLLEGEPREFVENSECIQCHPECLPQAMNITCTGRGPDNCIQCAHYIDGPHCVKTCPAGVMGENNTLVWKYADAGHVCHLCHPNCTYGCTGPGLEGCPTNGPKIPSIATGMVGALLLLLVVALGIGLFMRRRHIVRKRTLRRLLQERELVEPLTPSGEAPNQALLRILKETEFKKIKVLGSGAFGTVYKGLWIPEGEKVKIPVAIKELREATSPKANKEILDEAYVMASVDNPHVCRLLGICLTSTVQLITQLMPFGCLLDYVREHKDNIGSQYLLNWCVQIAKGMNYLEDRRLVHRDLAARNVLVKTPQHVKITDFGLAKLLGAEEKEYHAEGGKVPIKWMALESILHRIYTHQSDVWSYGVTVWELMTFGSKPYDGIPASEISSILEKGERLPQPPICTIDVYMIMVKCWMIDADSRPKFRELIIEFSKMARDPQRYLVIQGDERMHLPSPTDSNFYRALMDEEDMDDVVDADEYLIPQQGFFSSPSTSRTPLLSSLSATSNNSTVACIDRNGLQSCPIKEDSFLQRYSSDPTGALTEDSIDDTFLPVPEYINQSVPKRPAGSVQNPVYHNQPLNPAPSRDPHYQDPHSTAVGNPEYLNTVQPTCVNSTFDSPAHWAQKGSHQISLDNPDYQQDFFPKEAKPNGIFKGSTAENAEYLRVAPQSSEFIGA

Tyrosine-protein kinase Lck, sequence (P06239 whole entry): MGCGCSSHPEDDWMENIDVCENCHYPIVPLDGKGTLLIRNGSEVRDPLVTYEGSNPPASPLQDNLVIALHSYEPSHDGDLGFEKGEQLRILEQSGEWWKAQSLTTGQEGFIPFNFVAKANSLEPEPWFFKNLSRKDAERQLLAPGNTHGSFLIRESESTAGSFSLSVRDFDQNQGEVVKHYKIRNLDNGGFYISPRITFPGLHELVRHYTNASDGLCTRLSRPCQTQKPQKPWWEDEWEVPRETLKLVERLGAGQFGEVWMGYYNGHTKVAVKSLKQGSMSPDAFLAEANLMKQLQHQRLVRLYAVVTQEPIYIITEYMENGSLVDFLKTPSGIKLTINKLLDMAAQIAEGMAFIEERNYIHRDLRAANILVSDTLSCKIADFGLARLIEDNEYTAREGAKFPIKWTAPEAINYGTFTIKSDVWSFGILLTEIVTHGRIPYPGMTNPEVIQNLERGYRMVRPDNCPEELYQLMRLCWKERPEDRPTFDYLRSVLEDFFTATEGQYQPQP

| Compound | IC50 [1] [µM] | IC50 [2] [µM] |
| --- | --- | --- |
| O=C(Nc1ccccc1)c1cc2ccc(O)c(O)c2cn1 | 1 | 7.7 |
| O=C(NCCc1ccccc1)c1cc2ccc(O)c(O)c2cn1 | 40 | 1.4 |
| O=C(NCc1ccccc1)c1cc2cc(O)c(O)cc2cn1 | > 1000 | 3.1 |
| O=C(NCc1ccccc1)c1cc2ccc(O)c(O)c2cn1 | 1 | 1.4 |

Other lines, results leading:

| IC50 [1] [µM] | IC50 [2] [µM] | Compound |
| --- | --- | --- |
| 1900 | > 100 | NC(=O)c1cc2cc(O)c(O)cc2cn1 |
| 600 | 5.6 | O=C(Nc1ccccc1)c1cc2cc(O)c(O)cc2cn1 |
| 0.5 | > 100 | NC(=O)c1cc2ccc(O)c(O)c2cn1 |
|  | 20 | N#C/C(=C\c1ccc(O)c(O)c1)C(N)=O |
